Assay results published in ChEMBL document CHEMBL3991601, “The target landscape of clinical kinase drugs” (Science, 2017).
Active and inactive are the calls of the source.

Key:
[1] = molecular target: T1, Glycine--tRNA ligase (Homo sapiens, UniProt P41250)
T1 sequence (P41250 whole entry): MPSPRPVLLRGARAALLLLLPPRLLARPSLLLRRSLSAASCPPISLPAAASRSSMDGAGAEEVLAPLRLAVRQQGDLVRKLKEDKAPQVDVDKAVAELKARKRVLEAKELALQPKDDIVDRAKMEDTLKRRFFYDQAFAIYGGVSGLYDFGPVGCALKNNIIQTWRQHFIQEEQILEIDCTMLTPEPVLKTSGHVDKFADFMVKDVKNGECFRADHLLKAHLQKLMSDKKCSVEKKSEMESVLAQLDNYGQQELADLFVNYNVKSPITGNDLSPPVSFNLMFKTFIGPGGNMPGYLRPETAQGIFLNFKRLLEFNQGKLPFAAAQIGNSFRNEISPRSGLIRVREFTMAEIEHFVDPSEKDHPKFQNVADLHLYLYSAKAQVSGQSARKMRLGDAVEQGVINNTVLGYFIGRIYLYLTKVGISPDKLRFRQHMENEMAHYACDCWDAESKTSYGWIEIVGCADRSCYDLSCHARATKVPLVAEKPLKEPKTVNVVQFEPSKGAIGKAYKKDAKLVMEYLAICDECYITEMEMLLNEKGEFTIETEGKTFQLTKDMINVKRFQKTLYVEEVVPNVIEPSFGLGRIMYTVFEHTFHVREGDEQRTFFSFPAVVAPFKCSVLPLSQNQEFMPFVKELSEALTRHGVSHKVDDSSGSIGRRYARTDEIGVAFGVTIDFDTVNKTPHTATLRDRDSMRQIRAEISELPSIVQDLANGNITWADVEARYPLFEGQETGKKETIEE

[2] = molecular target: Serine/threonine-protein kinase PAK 2 (Homo sapiens, UniProt Q13177)
[3] = molecular target: Adenylate kinase 2, mitochondrial (Homo sapiens, UniProt P54819)
[4] = molecular target: T2, Serine/threonine-protein kinase ICK (Homo sapiens, UniProt Q9UPZ9)
T2 sequence (Q9UPZ9 whole entry): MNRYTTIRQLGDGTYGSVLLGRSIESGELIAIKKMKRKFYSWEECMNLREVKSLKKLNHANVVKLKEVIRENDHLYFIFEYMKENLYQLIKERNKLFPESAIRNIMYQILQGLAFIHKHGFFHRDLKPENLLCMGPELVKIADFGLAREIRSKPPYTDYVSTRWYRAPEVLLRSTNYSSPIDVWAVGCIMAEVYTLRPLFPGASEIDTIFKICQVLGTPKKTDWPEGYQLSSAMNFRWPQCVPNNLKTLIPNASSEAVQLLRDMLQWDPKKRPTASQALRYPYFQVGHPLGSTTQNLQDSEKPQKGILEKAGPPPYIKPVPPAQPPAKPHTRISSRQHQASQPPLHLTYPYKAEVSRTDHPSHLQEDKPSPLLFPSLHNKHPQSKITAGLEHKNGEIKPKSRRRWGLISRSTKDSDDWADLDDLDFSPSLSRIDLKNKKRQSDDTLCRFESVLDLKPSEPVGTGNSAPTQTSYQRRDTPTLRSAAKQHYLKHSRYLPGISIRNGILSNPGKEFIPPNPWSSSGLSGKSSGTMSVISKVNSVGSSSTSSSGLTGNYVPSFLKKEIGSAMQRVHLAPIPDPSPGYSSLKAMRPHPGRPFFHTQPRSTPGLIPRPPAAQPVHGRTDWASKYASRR

[5] = molecular target: Cyclin-dependent kinase 4 (Homo sapiens, UniProt P11802)
[6] = molecular target: T3, ADP/ATP translocase 3 (Homo sapiens, UniProt P12236)
T3 sequence (P12236 whole entry): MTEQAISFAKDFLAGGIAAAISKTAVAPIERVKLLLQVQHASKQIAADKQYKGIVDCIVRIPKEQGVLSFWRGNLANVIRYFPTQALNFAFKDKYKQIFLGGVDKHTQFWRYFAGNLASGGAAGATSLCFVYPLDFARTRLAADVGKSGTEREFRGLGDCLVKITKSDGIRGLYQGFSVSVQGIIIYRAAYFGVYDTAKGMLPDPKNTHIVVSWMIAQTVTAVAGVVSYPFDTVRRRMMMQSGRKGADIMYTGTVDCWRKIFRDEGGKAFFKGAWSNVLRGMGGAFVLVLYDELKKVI

[7] = molecular target: Myosin light chain kinase, smooth muscle (Homo sapiens, UniProt Q15746)
[8] = molecular target: T4, Pyridoxal kinase (Homo sapiens, UniProt O00764)
T4 sequence (O00764 whole entry): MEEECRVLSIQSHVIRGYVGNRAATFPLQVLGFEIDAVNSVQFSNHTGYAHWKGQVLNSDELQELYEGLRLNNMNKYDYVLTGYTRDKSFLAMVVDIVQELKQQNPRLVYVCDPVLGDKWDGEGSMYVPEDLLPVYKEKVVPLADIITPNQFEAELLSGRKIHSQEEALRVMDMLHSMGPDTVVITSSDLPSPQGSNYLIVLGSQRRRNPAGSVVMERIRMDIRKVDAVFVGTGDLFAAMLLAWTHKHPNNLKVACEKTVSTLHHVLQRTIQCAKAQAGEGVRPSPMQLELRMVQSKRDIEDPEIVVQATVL

[9] = molecular target: Rho-associated protein kinase 2 (Homo sapiens, UniProt O75116)
[10] = molecular target: Serine/threonine-protein kinase pim-1 (Homo sapiens, UniProt P11309)
[11] = molecular target: Citron Rho-interacting kinase (Homo sapiens, UniProt O14578)
[12] = molecular target: Ephrin type-A receptor 2 (Homo sapiens, UniProt P29317)
Also: in the data inactive means no Kd found up to 30 µM.

Sequence of Myosin light chain kinase, smooth muscle (Q15746 whole entry): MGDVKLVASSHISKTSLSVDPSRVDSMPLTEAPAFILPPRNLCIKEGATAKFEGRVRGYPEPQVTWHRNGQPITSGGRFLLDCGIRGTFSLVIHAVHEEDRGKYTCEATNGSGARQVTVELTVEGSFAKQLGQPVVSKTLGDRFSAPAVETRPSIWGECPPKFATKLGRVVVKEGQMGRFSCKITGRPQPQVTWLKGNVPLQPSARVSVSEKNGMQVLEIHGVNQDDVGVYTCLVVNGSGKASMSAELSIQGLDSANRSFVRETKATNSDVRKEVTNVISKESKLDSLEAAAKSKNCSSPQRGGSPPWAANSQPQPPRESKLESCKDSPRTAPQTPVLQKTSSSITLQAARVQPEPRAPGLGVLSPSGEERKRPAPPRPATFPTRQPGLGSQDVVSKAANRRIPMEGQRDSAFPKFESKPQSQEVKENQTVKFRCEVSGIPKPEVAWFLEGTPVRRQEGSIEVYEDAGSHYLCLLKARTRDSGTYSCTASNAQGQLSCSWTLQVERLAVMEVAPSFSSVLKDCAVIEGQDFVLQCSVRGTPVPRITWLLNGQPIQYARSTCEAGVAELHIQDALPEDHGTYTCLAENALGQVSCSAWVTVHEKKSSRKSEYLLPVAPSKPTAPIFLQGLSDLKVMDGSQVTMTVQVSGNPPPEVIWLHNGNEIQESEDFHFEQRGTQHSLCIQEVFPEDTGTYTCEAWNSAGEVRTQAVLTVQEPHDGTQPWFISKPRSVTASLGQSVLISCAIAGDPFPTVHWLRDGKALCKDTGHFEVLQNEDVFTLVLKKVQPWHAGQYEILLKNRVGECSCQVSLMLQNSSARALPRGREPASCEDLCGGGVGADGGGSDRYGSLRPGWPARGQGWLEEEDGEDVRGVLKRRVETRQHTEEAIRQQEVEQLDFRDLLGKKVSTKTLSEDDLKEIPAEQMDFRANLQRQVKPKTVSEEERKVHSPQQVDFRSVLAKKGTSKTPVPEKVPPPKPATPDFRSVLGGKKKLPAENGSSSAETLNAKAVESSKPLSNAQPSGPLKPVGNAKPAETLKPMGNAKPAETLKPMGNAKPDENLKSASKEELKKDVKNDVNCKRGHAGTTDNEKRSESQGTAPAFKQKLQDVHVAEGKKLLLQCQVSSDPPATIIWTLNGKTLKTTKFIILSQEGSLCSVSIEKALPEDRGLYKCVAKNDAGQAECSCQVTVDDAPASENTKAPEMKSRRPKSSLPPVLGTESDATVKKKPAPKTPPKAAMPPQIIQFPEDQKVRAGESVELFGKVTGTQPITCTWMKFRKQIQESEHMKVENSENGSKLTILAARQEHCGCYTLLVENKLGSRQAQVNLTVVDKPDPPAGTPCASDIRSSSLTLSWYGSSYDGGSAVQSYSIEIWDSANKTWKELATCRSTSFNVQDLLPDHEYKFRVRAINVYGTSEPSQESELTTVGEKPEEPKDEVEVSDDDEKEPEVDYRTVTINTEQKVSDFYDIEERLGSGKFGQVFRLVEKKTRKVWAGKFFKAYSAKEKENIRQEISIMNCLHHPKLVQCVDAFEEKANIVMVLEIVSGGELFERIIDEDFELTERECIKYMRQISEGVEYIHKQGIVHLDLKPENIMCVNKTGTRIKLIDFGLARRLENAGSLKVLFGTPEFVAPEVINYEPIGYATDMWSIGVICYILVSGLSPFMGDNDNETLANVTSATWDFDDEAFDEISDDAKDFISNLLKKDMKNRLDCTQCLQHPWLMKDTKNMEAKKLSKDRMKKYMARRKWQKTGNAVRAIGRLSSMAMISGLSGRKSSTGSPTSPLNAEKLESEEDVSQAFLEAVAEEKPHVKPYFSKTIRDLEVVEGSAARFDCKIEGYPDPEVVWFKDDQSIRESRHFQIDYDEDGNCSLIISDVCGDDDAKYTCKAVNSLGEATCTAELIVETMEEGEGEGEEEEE
Sequence of Citron Rho-interacting kinase (O14578 whole entry): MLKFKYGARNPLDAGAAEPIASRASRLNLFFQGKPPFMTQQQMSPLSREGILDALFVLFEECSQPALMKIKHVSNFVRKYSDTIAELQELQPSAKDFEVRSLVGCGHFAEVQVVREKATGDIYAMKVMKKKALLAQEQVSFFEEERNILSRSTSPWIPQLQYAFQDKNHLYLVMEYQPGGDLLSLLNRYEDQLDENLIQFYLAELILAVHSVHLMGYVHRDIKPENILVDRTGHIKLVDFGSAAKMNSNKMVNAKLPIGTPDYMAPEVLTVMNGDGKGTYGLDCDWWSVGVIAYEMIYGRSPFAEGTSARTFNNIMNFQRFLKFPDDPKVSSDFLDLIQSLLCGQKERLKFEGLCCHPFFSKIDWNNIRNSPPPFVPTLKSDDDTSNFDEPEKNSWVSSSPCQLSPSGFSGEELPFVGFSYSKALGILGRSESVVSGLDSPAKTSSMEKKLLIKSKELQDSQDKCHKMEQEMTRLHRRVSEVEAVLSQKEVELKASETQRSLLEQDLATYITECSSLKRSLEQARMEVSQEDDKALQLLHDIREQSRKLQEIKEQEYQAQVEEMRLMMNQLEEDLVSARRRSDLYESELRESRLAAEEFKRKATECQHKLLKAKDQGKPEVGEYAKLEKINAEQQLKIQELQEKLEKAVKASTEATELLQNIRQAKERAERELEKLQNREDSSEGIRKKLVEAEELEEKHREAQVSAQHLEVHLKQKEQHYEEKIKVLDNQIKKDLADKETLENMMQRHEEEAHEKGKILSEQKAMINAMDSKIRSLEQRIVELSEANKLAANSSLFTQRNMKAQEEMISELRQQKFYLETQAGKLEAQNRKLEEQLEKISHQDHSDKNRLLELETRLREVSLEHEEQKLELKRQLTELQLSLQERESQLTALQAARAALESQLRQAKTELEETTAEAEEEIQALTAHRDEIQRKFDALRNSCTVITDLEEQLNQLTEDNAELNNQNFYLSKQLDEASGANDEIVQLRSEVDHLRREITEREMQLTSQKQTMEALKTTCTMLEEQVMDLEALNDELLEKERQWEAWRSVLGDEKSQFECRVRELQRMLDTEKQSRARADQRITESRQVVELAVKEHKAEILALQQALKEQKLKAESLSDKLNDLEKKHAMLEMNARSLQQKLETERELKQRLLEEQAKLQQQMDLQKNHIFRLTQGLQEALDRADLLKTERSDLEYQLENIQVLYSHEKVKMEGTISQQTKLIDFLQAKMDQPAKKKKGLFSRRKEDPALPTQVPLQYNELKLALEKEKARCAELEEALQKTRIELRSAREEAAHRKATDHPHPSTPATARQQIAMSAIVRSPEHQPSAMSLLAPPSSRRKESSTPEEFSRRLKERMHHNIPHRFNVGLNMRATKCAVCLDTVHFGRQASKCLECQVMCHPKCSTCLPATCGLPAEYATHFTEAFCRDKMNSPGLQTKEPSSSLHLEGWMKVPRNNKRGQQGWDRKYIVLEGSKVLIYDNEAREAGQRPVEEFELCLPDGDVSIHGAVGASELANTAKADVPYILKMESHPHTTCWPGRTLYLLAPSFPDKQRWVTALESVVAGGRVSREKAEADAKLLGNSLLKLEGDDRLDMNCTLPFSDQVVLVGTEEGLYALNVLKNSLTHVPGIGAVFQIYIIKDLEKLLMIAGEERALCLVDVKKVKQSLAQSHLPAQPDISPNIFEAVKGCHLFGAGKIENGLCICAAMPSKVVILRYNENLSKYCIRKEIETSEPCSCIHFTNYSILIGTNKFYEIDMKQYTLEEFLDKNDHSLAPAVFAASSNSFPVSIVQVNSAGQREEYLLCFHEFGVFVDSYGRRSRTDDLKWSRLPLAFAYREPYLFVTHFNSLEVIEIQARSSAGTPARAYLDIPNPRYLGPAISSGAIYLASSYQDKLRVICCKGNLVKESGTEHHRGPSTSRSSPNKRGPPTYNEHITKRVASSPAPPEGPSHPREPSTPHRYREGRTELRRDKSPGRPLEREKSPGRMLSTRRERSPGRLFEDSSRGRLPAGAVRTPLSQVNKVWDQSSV
Sequence of Serine/threonine-protein kinase pim-1 (P11309 whole entry): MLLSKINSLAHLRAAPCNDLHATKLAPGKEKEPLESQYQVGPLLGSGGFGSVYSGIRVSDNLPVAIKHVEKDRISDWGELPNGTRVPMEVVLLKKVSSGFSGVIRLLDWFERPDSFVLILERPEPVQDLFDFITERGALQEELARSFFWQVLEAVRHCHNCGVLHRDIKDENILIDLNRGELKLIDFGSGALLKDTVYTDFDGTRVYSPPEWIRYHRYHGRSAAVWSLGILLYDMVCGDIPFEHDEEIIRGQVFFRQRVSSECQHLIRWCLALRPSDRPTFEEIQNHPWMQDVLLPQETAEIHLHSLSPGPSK
Sequence of Cyclin-dependent kinase 4 (P11802 whole entry): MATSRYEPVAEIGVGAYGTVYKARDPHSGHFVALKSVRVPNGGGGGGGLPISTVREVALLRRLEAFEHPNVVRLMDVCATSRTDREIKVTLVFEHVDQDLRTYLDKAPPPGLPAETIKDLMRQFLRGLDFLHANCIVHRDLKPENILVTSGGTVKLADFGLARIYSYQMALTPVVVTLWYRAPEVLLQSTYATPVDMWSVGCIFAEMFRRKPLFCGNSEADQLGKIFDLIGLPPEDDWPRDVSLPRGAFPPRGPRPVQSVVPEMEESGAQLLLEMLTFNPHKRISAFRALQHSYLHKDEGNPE
Sequence of Serine/threonine-protein kinase PAK 2 (Q13177 whole entry): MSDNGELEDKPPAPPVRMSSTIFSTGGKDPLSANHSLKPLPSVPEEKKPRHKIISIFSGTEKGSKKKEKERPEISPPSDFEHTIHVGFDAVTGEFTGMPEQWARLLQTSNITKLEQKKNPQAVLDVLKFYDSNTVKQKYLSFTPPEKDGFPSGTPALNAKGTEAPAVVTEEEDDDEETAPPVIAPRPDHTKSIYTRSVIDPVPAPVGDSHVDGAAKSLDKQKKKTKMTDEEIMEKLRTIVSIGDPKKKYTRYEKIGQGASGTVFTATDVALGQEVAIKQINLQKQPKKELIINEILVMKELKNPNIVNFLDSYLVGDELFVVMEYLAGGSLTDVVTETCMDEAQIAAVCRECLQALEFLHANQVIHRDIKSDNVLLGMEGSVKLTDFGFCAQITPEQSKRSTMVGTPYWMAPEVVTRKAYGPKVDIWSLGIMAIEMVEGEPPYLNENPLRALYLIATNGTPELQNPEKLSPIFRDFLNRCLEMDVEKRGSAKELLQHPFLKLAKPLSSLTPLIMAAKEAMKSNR

COc1cc(Nc2ncc3c(n2)-c2ccc(Cl)cc2C(c2c(F)cccc2OC)=NC3)ccc1C(=O)O [ALISERTIB]
Kd [1]: > 30 µM (inactive) | Kd [2]: > 30 µM (inactive) | Kd [3]: > 30 µM (inactive) | Kd [4]: > 30 µM (inactive) | Kd [5]: > 30 µM (inactive) | Kd [6]: > 30 µM (inactive) | Kd [7]: > 30 µM (inactive) | Kd [8]: > 30 µM (inactive)

O=C(Nc1c[nH]nc1-c1nc2cc(CN3CCOCC3)ccc2[nH]1)NC1CC1 [AT-9283]
Kd [1]: > 30 µM (inactive) | Kd [9]: > 30 µM (inactive) | Kd [2]: > 30 µM (inactive) | Kd [3]: > 30 µM (inactive) | Kd [10]: > 30 µM (inactive) | Kd [4]: > 30 µM (inactive) | Kd [5]: 1.29 µM (active) | Kd [11]: > 30 µM (inactive) | Kd [6]: > 30 µM (inactive) | Kd [7]: > 30 µM (inactive) | Kd [8]: > 30 µM (inactive)

CNC(=O)c1ccccc1Sc1ccc2c(/C=C/c3ccccn3)n[nH]c2c1 [AXITINIB]
Kd [1]: > 30 µM (inactive) | Kd [3]: > 30 µM (inactive) | Kd [6]: > 30 µM (inactive) | Kd [8]: > 30 µM (inactive)

C#Cc1cccc(Nc2ncnc3cc(OC)c(OCCCCCCC(=O)NO)cc23)c1 [CUDC-101]
Kd [1]: > 30 µM (inactive) | Kd [9]: > 30 µM (inactive) | Kd [2]: > 30 µM (inactive) | Kd [3]: 1.04 µM (active) | Kd [10]: > 30 µM (inactive) | Kd [4]: > 30 µM (inactive) | Kd [5]: > 30 µM (inactive) | Kd [11]: > 30 µM (inactive) | Kd [6]: > 30 µM (inactive) | Kd [12]: > 30 µM (inactive) | Kd [7]: > 30 µM (inactive) | Kd [8]: > 30 µM (inactive)

CC(C)(C)c1nc(-c2cccc(NS(=O)(=O)c3c(F)cccc3F)c2F)c(-c2ccnc(N)n2)s1 [DABRAFENIB]
Kd [1]: > 30 µM (inactive) | Kd [9]: > 30 µM (inactive) | Kd [3]: > 30 µM (inactive) | Kd [4]: > 30 µM (inactive) | Kd [11]: > 30 µM (inactive) | Kd [6]: > 30 µM (inactive) | Kd [12]: > 30 µM (inactive) | Kd [7]: > 30 µM (inactive) | Kd [8]: > 30 µM (inactive)

Cn1cc(C2=C(c3cn(C4CCN(Cc5ccccn5)CC4)c4ccccc34)C(=O)NC2=O)c2ccccc21 [ENZASTAURIN]
Kd [1]: > 30 µM (inactive) | Kd [3]: > 30 µM (inactive) | Kd [6]: > 30 µM (inactive) | Kd [8]: > 30 µM (inactive)

C[C@@H](Oc1cc(-n2cnc3ccc(CN4CCN(C)CC4)cc32)sc1C(N)=O)c1ccccc1C(F)(F)F [GSK-461364]
Kd [1]: > 30 µM (inactive) | Kd [3]: > 30 µM (inactive) | Kd [6]: > 30 µM (inactive) | Kd [8]: > 30 µM (inactive)

CCn1cc(-c2ccnc3[nH]c(-c4cccc(CN(C)C)c4)cc23)c(-c2ccc(NC(=O)N(C)C)cc2)n1 [GSK-1070916]
Kd [1]: > 30 µM (inactive) | Kd [9]: 2.4 µM (active) | Kd [2]: > 30 µM (inactive) | Kd [3]: > 30 µM (inactive) | Kd [10]: > 30 µM (inactive) | Kd [4]: > 30 µM (inactive) | Kd [5]: > 30 µM (inactive) | Kd [11]: 2.89 µM (active) | Kd [6]: > 30 µM (inactive) | Kd [12]: > 30 µM (inactive) | Kd [7]: > 30 µM (inactive) | Kd [8]: > 30 µM (inactive)

CNC(=O)c1nn(C)c2c1C(C)(C)Cc1cnc(Nc3ccc(N4CCN(C)CC4)cc3)nc1-2 [MILCICLIB]
Kd [1]: > 30 µM (inactive) | Kd [9]: > 30 µM (inactive) | Kd [2]: > 30 µM (inactive) | Kd [3]: > 30 µM (inactive) | Kd [10]: > 30 µM (inactive) | Kd [4]: 0.863 µM (active) | Kd [11]: > 30 µM (inactive) | Kd [6]: > 30 µM (inactive) | Kd [12]: 0.661 µM (active) | Kd [7]: > 30 µM (inactive) | Kd [8]: > 30 µM (inactive)

Cc1[nH]c(/C=C2\C(=O)Nc3ccccc32)c(C)c1CCC(=O)O [ORANTINIB]
Kd [1]: > 30 µM (inactive) | Kd [2]: > 30 µM (inactive) | Kd [3]: > 30 µM (inactive) | Kd [5]: > 30 µM (inactive) | Kd [11]: > 30 µM (inactive) | Kd [6]: > 30 µM (inactive) | Kd [7]: > 30 µM (inactive) | Kd [8]: > 30 µM (inactive)

NC(=O)c1c(OCc2c(F)cc(Br)cc2F)nsc1NC(=O)NCCCCN1CCCC1 [OSI-632]
Kd [1]: > 30 µM (inactive) | Kd [3]: > 30 µM (inactive) | Kd [4]: > 30 µM (inactive) | Kd [5]: > 30 µM (inactive) | Kd [11]: > 30 µM (inactive) | Kd [6]: > 30 µM (inactive) | Kd [7]: > 30 µM (inactive) | Kd [8]: > 30 µM (inactive)

CCOc1cc2ncc(C#N)c(Nc3ccc(F)c(Cl)c3)c2cc1NC(=O)/C=C/CN(C)C [PELITINIB]
Kd [1]: > 30 µM (inactive) | Kd [9]: > 30 µM (inactive) | Kd [2]: > 30 µM (inactive) | Kd [3]: > 30 µM (inactive) | Kd [10]: > 30 µM (inactive) | Kd [4]: > 30 µM (inactive) | Kd [5]: > 30 µM (inactive) | Kd [11]: > 30 µM (inactive) | Kd [6]: > 30 µM (inactive) | Kd [12]: > 30 µM (inactive) | Kd [7]: > 30 µM (inactive) | Kd [8]: > 30 µM (inactive)

CC(=O)NCC(=O)N1[C@@H]2CC[C@H]1c1ccc(Nc3ncc(C(F)(F)F)c(NC4CCC4)n3)cc12 [PF-03814735]
Kd [1]: > 30 µM (inactive) | Kd [3]: > 30 µM (inactive) | Kd [4]: > 30 µM (inactive) | Kd [5]: > 30 µM (inactive) | Kd [11]: > 30 µM (inactive) | Kd [6]: > 30 µM (inactive) | Kd [7]: > 30 µM (inactive) | Kd [8]: > 30 µM (inactive)

CNC(=O)c1cc(Oc2ccc(NC(=O)Nc3cc(C(C)(C)C)nn3-c3ccc4ncccc4c3)c(F)c2)ccn1 [REBASTINIB]
Kd [1]: > 30 µM (inactive) | Kd [9]: > 30 µM (inactive) | Kd [2]: > 30 µM (inactive) | Kd [3]: > 30 µM (inactive) | Kd [10]: > 30 µM (inactive) | Kd [4]: > 30 µM (inactive) | Kd [11]: > 30 µM (inactive) | Kd [6]: > 30 µM (inactive) | Kd [12]: > 30 µM (inactive) | Kd [7]: 2.18 µM (active) | Kd [8]: > 30 µM (inactive)

O=C(NOCCO)c1cc(CN2OCCCC2=O)c(F)c(F)c1Nc1ccc(I)cc1F [RO-4987655]
Kd [1]: > 30 µM (inactive) | Kd [3]: > 30 µM (inactive) | Kd [6]: > 30 µM (inactive) | Kd [8]: > 30 µM (inactive)

N#CC[C@H](C1CCCC1)n1cc(-c2ncnc3[nH]ccc23)cn1 [RUXOLITINIB]
Kd [1]: > 30 µM (inactive) | Kd [3]: > 30 µM (inactive) | Kd [6]: > 30 µM (inactive) | Kd [8]: > 30 µM (inactive)

CN1CCN(CCOc2cc(OC3CCOCC3)c3c(Nc4c(Cl)ccc5c4OCO5)ncnc3c2)CC1 [SARACATINIB]
Kd [1]: > 30 µM (inactive) | Kd [9]: > 30 µM (inactive) | Kd [3]: > 30 µM (inactive) | Kd [10]: > 30 µM (inactive) | Kd [4]: > 30 µM (inactive) | Kd [5]: > 30 µM (inactive) | Kd [11]: > 30 µM (inactive) | Kd [6]: > 30 µM (inactive) | Kd [12]: 0.729 µM (active) | Kd [7]: > 30 µM (inactive) | Kd [8]: > 30 µM (inactive)
